test system: PDE IV; assay: inhibition of PDE IV isolated from canine trachea (cAMP metabolism); type: biochemical; settings: PDE IV from canine tracheal muscle; 1 μM 3H-cAMP; 10 μM CI-930; 30° C., pH 7.8; reduction expressed as percentage of that by 10 μM rolipram
Protocol: The following assay is employed to assess the ability of the compounds of the invention to inhibit PDE IV.
A solution containing PDE IV is prepared from canine tracheal muscle as follows:
The dog is euthanized with an overdose of beuthanasia while under anesthesia induced by a 33 mg/kg IV bolus of Nembutal. The trachealis muscle is removed, cleaned of connective tissue, and minced thoroughly. Three to four grams of tissue is then homogenized in Tris-HCl buffer (pH 7.8) using a Polytron. The homogenate is then centrifuged at 25,000×g (4° C.) for 30 minutes. The supernatant is decanted and filtered through four layers of gauze, and applied to a 40 cm×2 cm DEAE-Sepharose column that is equilibrated with Tris-HCl buffer (pH 7.8). The column is then washed with an additional 240 mL of buffer to remove unbound proteins. PDE is eluted using 450 mL of Tris-HCl buffer containing a linear gradient of 0.0-1.0M Na-acetate (80 mL/hr), and 7.5 mL fractions are collected. Each fraction is assayed for cAMP- and cGMP-metabolizing PDE activity. Fractions eluting at approximately 0.6M Na-acetate, and containing cAMP but not cGMP metabolic activity are pooled and used as a PDE stock solution for assaying PDE IV inhibitory activity.
CI-930 is included as an inhibitor of the cyclic GMP-sensitive, cyclic AMP-selectivePDE (PDE III) that is also present in the PDE IV stock solution when prepared as described above.

Point of comparison: `CCCCOc1cc(/C(C)=N/OC(=O)NC)ccc1OC` [Example 8, 1-(3-butoxy-4-methoxyphenyl)ethanone (E)-O-[(methylamino)carbonyl]oxime], IC50 200 nM. Against it:
- COc1ccc(/C(C)=N/OC(N)=O)cc1OC1CCCC1 [Example 1, 1-[3-(Cyclopentyloxy)-4-methoxyphenyl]ethanone (E)-O-(aminocarbonyl)oxime] — 4.2-fold lower, 48 nM
- CCCCOc1cc(/C(C)=N/OC(N)=O)ccc1OC [Example 2, 1-[3-(Butoxy)-4-methoxyphenyl]ethanone (E)-O-(aminocarbonyl)oxime] — 2.2-fold lower, 90 nM
- COc1ccc(/C(C)=N/OC(N)=O)cc1OCCCOc1ccccc1 [Example 3, 1-[4-Methoxy-3-(3-phenoxypropoxy)phenyl]ethanone (E)-O-(aminocarbonyl)oxime] — 2-fold higher, 410 nM
- COc1ccc(/C(Cc2ccccc2)=N/OC(N)=O)cc1OC1CCCC1 [Example 4, 1-(3-Cyclopentyloxy-4-methoxyphenyl)-2-phenylethanone (E)-O-(aminocarbonyl)oxime] — 4.3-fold lower, 47 nM
- COc1ccc(/C(CCc2ccccc2)=N/OC(N)=O)cc1OC1CCCC1 [Example 5, 1-(3-Cyclopentyloxy-4-methoxyphenyl)-3-phenylpropanone (E)-O-(aminocarbonyl)oxime] — 8-fold lower, 25 nM
- COc1ccc(/C(CC(C)C)=N/OC(N)=O)cc1OC1CCCC1 [Example 6, 1-[3-(Cyclopentyloxy)-4-methoxyphenyl]-3-methylbutanone (E)-O-(aminocarbonyl)oxime] — 1.5-fold lower, 130 nM
- CNC(=O)O/N=C(\C)c1ccc(OC)c(OC2CCCC2)c1 [Example 7, 1-[3-(Cyclopentyloxy)-4-methoxyphenyl]ethanone (E)-O-[(methylamino)carbonyl]oxime] — 1.7-fold lower, 120 nM
- CCCCOc1cc(/C(C)=N/OC(=O)Nc2ccccc2)ccc1OC [Example 9, 1-(3-butoxy-4-methoxyphenyl)ethanone (E)-O-[(phenylamino)carbonyl]oxime] — 7.5-fold higher, 1500 nM
- COC(=O)O/N=C(\C)c1ccc(OC)c(OC2CCCC2)c1 [Example 10, 1-[3-(cyclopentyloxy)-4-methoxyphenyl]ethanone (E)-O-(methoxycarbonyl)oxime] — within 1.5-fold, 180 nM
- CCCCOc1cc(/C(C)=N/OC(=O)OC)ccc1OC [Example 11, 1-(3-butoxy-4-methoxyphenyl)ethanone (E)-O-(methoxycarbonyl)oxime] — within 1.5-fold, 240 nM
- CCCCOc1cc(/C(C)=N/OC(=O)Oc2ccccc2)ccc1OC [Example 12, 1-(3-butoxy-4-methoxyphenyl)ethanone (E)-O-(phenoxycarbonyl)oxime] — 1.9-fold higher, 380 nM
- COc1ccc(/C(C)=N/OC(N)=O)cc1OC1CC2CCC1C2 (stereo not shown) [Example 13, 1-[3-(bicyclo[2.2.1]hept-2-yloxy)-4-methoxyphenyl]ethanone (E)-O-(aminocarbonyl)oxime] — 3-fold lower, 67 nM
